According to US20200163984A1, “USE OF ISOVALERYL SPIRAMYCIN I, II AND/OR III IN MANUFACTURING MEDICAMENT FOR TREATING AND/OR PREVENTING TUMOR, AND MEDICAMENT” (SHENYANG FUYANG PHARMACEUTICAL TECHNOLOGY CO., LTD., priority 2017, published 2020):

Tests used:
[1] = system: transplanted tumor of HT-29 cells; assay: HT-29 transplanted tumor in nude mice; conditions: for Inhibition Rate (%) / Tumor Weight: HT-29 nude mice; for Tumor Volume (mm3) (d30): d 30
Experimental: (§1) Then cell concentration was adjusted to 1×10^7/ml with matrigel, then each nude mouse was inoculated subcutaneously with 0.2 ml of cells at its right armpit and recorded as the first day of inoculation. When the tumor grows to be greater than or equal to 100 mm^3, the mice were randomly divided into 11 groups with 6 mice in each group: isovaleryl spiramycin I groups with doses of 25, 50 and 100 mg/kg, isovaleryl spiramycin II groups with doses of 25, 50 and 100 mg/kg, and isovaleryl spiramycin III groups with doses of 25, 50 and 100 mg/kg. Each group was continuously administered intragastrically for 30 days with a dose of 20 ml/kg. The mice were sacrificed the next day after drug withdrawal and the indicators were tested. The long diameter and short diameter of the tumor, and the body weight of each mouse were recorded every 3 days from drug administration to nude mouse sacrifice.
(§2) The body weight of the nude mice and the long diameter (a) and short diameter (b) of the transplanted tumor were measured every 3 days, and the tumor volume (v), relative tumor volume (RTV) and relative tumor proliferation rate (T/C) are calculated respectively according to the following formulas, wherein V=a×b^2/2; RTV=V/V0 (V0 is the tumor volume before administration, V is the tumor volume before sacrifice), and T/C (%)=treatment group RTV/model control group RTV×100%.
(§3) Each mouse was weighed and sacrificed. After the tumor was completely stripped off from the body of the mouse, the non-tumor tissues such as blood stains and fat were removed to weigh the tumor and calculate the tumor growth inhibition rate. The average tumor weight of each group of mice is used as an indicator of efficacy. Tumor growth inhibition rate (%)=(1−the average tumor weight of the treatment group/the average tumor weight of the model group)×100%.

[2] = system: transplanted tumor of human glioma cell U251; assay: U251 transplanted tumor in nude mice; conditions: for Tumor Volume (mm3) (d 1): d1
Experimental: as §1, with “U251 cells in a logarithmic growth phase were taken and subjected to a trypan blue exclusion experiment showing that the cell viability was more than 95%, then the cells were subjected to trypsinization, centrifugation, and supernatant removal. Then” for “Then”, “group: a model group, a cyclophosphamide group,” for “group:”
as §2, §3

[3] = HT-29, high dose (100 mg/kg in method) i.g. 30 days
[4] = HT-29, low dose (25 mg/kg in method) i.g. 30 days
[5] = HT-29, medium dose (50 mg/kg in method) i.g. 30 days
[6] = U251, high dose (100 mg/kg in method) i.g. 30 days
[7] = U251, low dose (25 mg/kg in method) i.g. 30 days
[8] = U251, medium dose (50 mg/kg in method) i.g. 30 days

CCC(=O)O[C@@H]1CC(=O)O[C@H](C)C/C=C/C=C/[C@H](O[C@H]2CC[C@H](N(C)C)[C@@H](C)O2)[C@H](C)C[C@H](CC=O)[C@H](O[C@@H]2O[C@H](C)[C@@H](O[C@H]3C[C@@](C)(O)[C@@H](OC(=O)CC(C)C)[C@H](C)O3)[C@H](N(C)C)[C@H]2O)[C@H]1OC [Isovaleryl spiramycin III, isovaleryl spiramycin III]
Relative Tumor Proliferation Rate (T/C) [1, 3]: 35.63%
tumor growth inhibition rate [1, 3]: 63.19%
Relative Tumor Proliferation Rate (T/C) [1, 4]: 85.54%
tumor growth inhibition rate [1, 4]: 19.22%
tumor volume and relative tumor volume compared with the model group ([1]; HT-29, low, medium and high doses, P<0.05): significantly lower
Relative Tumor Proliferation Rate (T/C) [1, 5]: 53.48%
tumor growth inhibition rate [1, 5]: 41.35%
Inhibition Rate (%) ([1]; 25 mg/kg): 19.22%
Tumor Weight ([1]; 25 mg/kg): 1.90 ± 0.39 g
Inhibition Rate (%) ([1]; 50 mg/kg): 41.35%
Tumor Weight ([1]; 50 mg/kg): 1.38 ± 0.37 g
Inhibition Rate (%) ([1]; 100 mg/kg): 63.19%
Tumor Weight ([1]; 100 mg/kg): 0.87 ± 0.34 g
Relative Tumor Proliferation Rate (T/C) ([1]; dose 25 mg/kg): 85.54%
Relative Tumor Volume (RTV) ([1]; dose 25 mg/kg): 12.32 ± 4.51
Tumor Volume (mm3) (d 1) ([1]; dose 25 mg/kg): 154.49 ± 33.07 mm3
Tumor Volume (mm3) (d30) ([1]; dose 25 mg/kg): 1803.16 ± 368.50 mm3
Relative Tumor Proliferation Rate (T/C) ([1]; dose 50 mg/kg): 53.48%
Relative Tumor Volume (RTV) ([1]; dose 50 mg/kg): 7.70 ± 1.65
Tumor Volume (mm3) (d 1) ([1]; dose 50 mg/kg): 161.76 ± 30.69 mm3
Tumor Volume (mm3) (d30) ([1]; dose 50 mg/kg): 1252.64 ± 404.06 mm3
Relative Tumor Proliferation Rate (T/C) ([1]; dose 100 mg/kg): 35.63%
Relative Tumor Volume (RTV) ([1]; dose 100 mg/kg): 5.13 ± 1.13
Tumor Volume (mm3) (d 1) ([1]; dose 100 mg/kg): 160.38 ± 38.86 mm3
Tumor Volume (mm3) (d30) ([1]; dose 100 mg/kg): 826.76 ± 259.70 mm3
mouse weight compared with the model group ([1]; mouse, in vivo): no significant changes
Body Weight (g) (d1) ([1]; mouse, in vivo, 25 mg/kg): 21.31 ± 1.23 g
Body Weight (g) (d30) ([1]; mouse, in vivo, 25 mg/kg): 21.19 ± 1.52 g
Body Weight (g) (d1) ([1]; mouse, in vivo, 50 mg/kg): 21.22 ± 1.24 g
Body Weight (g) (d30) ([1]; mouse, in vivo, 50 mg/kg): 21.00 ± 0.98 g
Body Weight (g) (d1) ([1]; mouse, in vivo, 100 mg/kg): 21.34 ± 1.78 g
Body Weight (g) (d30) ([1]; mouse, in vivo, 100 mg/kg): 21.09 ± 1.43 g
Relative Tumor Proliferation Rate (T/C) [2, 6]: 41.10%
tumor growth inhibition rate [2, 6]: 59.56%
Relative Tumor Proliferation Rate (T/C) [2, 7]: 68.16%
tumor growth inhibition rate [2, 7]: 15.45%
tumor volume and relative tumor volume compared with the model group ([2]; U251, low, medium and high doses, P<0.05): significantly lower
Relative Tumor Proliferation Rate (T/C) [2, 8]: 54.34%
tumor growth inhibition rate [2, 8]: 32.74%
Inhibition Rate (%) ([2]; U251 nude mice, 25 mg/kg): 15.45%
Relative Tumor Proliferation Rate (T/C) ([2]; U251 nude mice, 25 mg/kg): 68.16%
Relative Tumor Volume (RTV) ([2]; U251 nude mice, 25 mg/kg): 13.47 ± 1.67
Tumor Weight ([2]; U251 nude mice, 25 mg/kg): 1.17 ± 0.11 g
Tumor Volume (mm3) (d 1) ([2]; U251 nude mice, 25 mg/kg): 124.24 ± 10.18 mm3
Tumor Volume (mm3) (d30) ([2]; U251 nude mice, 25 mg/kg): 1413.41 ± 221.90 mm3
Inhibition Rate (%) ([2]; U251 nude mice, 50 mg/kg): 32.74%
Relative Tumor Proliferation Rate (T/C) ([2]; U251 nude mice, 50 mg/kg): 54.34%
Relative Tumor Volume (RTV) ([2]; U251 nude mice, 50 mg/kg): 12.63 ± 1.27
Tumor Weight ([2]; U251 nude mice, 50 mg/kg): 0.93 ± 0.12 g
Tumor Volume (mm3) (d 1) ([2]; U251 nude mice, 50 mg/kg): 121.24 ± 9.15 mm3
Tumor Volume (mm3) (d30) ([2]; U251 nude mice, 50 mg/kg): 1096.57 ± 173.49 mm3
Inhibition Rate (%) ([2]; U251 nude mice, 100 mg/kg): 59.56%
Relative Tumor Proliferation Rate (T/C) ([2]; U251 nude mice, 100 mg/kg): 41.10%
Relative Tumor Volume (RTV) ([2]; U251 nude mice, 100 mg/kg): 10.96 ± 0.82
Tumor Weight ([2]; U251 nude mice, 100 mg/kg): 0.56 ± 0.05 g
Tumor Volume (mm3) (d 1) ([2]; U251 nude mice, 100 mg/kg): 120.86 ± 6.34 mm3
Tumor Volume (mm3) (d30) ([2]; U251 nude mice, 100 mg/kg): 832.79 ± 182.98 mm3
mouse weight compared with the model group ([2]; mouse, in vivo): no significant changes
Body Weight (g) (d1) ([2]; mouse, in vivo, 25 mg/kg): 20.96 ± 0.58 g
Body Weight (g) (d30) ([2]; mouse, in vivo, 25 mg/kg): 20.70 ± 0.51 g
Body Weight (g) (d1) ([2]; mouse, in vivo, 50 mg/kg): 21.25 ± 0.53 g
Body Weight (g) (d30) ([2]; mouse, in vivo, 50 mg/kg): 21.10 ± 0.60 g
Body Weight (g) (d1) ([2]; mouse, in vivo, 100 mg/kg): 21.33 ± 0.62 g
Body Weight (g) (d30) ([2]; mouse, in vivo, 100 mg/kg): 21.03 ± 0.55 g
